Experiments:
[1] = system: Human multiple myeloma cell lines U266, H929, MM1.S, and OPM2; assay: Growth suppression of multiple myeloma cells; type: cell-based; settings: for IC50: Homo sapiens, Multiple myeloma cell, read-out: IC50 doses
Procedure: (§1) For proliferation studies, 1-2×10^4 cells per well were seeded in a 96-well plate and were treated with using cell-counting-8 kit (CCK8) (Dojindo, Rockville, MD) according to manufacturer's protocol.

human T cells [2] = assay: Viability and proliferation of activated T cells; type: cell-based
human T cells [3] = assay: IL-2 production by stimulated T cells; type: cell-based; settings: anti-CD3 stimulated, relative to DMSO
mouse T cells [4] = assay: IL-2 production by stimulated T cells; type: cell-based; settings: 10 μM, ± anti-CD28
[5] = target: thalidomide binding domain (TBD) of cereblon (Homo sapiens, UniProt Q96SW2); assay: Cereblon binding (DSF, FP/FI); settings: for inhibition at 200 µM: read-out: Cereblon Binding (≥50% inhibition at 200 μM)
Procedure: Several libraries are available for screening inhibitors. Virtual analysis was formulated and then theoretical design of chemical test kit and virtual screen of test kit were carried out. Physical binding studies were also completed for the initial compounds using DSF and FP assays after they are fully tested. TEST KITs that represent the compounds identified from each of the available chemical libraries based on virtual chemical structures were also made.

MM1.S = assay: Viability of sensitive cell line relative to DMSO; type: cell-based, human
Procedure: as §1

U266 = assay: Viability of sensitive cell line relative to DMSO; type: cell-based, human
Procedure: as §1

THP-1 = assay: Viability of sensitive cell line relative to DMSO; type: cell-based
U-937 = assay: Viability of sensitive cell line relative to DMSO; type: cell-based
K562 = assay: Viability of sensitive cell line relative to DMSO; type: cell-based
HL-60 = assay: Viability of sensitive cell line relative to DMSO; type: cell-based
[6] = Viability of sensitive cell line relative to DMSO; type: cell-based; design: concentration or dose not given beside the values; settings: human, lymphocytes
mouse T cells [7] = assay: Flow cytometry of activated T cells (CD98, viability, division); type: cell-based
[8] = system: BRD4 protein and c-Myc expression; assay: Western blot of BRD4 and c-Myc; type: cell-based, human and mouse
human TBD wild type = target: T1, human TBD wild type (Homo sapiens, UniProt Q96SW2); assay: Intrinsic tryptophan fluorescence assay (IF); type: binding
T1 construct: The gene coding for the human TBD (aa 317-425) was synthesized; GST (PreScission site, pGEX-6P-1) (N, cleaved yes); made in house; host or cells: E. coli Rosetta 2(DE3)pLysS
Text: Intrinsic tryptophan fluorescence assay: Binding of compounds to wild-type and mutant TBD was monitored by fluorescence spectroscopy, using an adapted previously published method (14). All chemicals used in this assay were purchased from Sigma-Aldrich unless otherwise stated. In this assay, changes in emission spectra are induced by interactions of these compounds with the three Trp residues (Trp380, Trp386 and Trp400) in the binding site (15, 16). […] A 0.5% final DMSO concentration was used in each well. […] All measurements were done in triplicate and corrected for inner filter effect to subtract for ligand-associated fluorescence, as described (17). […] Graph plotting and curve fitting to obtain apparent dissociation constant (KD) values were calculated by fitting the relative change in intrinsic fluorescence at 340 nm (1-F/F0) versus ligand concentration to a nonlinear regression with one-site binding hyperbola with GraphPad Prism Sofware (GraphPad Software, La Jolla, CA).

c-Myc mRNA = assay: qRT-PCR of c-Myc in T cells; type: cell-based; settings: primary mouse T cells, 72 h
Procedure: qRT-PCR: Isolated T cells from Crbn^+/+ and Crbn^−/− mice were lysed, homogenized (Qiashredder, Qiagen), and total RNA extracted (RNeasy, Qiagen) according to manufacturer protocol. Complementary DNA was generated from isolated RNA (iScript cDNA synthesis Kit, Bio-Rad). RNA expression was analyzed by quantitative real time-polymerase chain reaction (qRT-PCR) using Taqman Universal PCR Master Mix for Taqman probes (Thermo Fischer Scientific) against (cDNA) c-Myc (Mm00487804_m1) and (cDNA) β2M (Mm00437762_m1). Samples were run on an Applied Biosystems 7900 HT and Sequence Detection Systems software.

IL-2 = IL-2 relative to DMSO; type: cell-based
[9] = Viability relative to DMSO; type: cell-based; design: concentration or dose not given beside the values

thalidomide binding domain (TBD) of cereblon, sequence (Q96SW2 318-426 limits assumed): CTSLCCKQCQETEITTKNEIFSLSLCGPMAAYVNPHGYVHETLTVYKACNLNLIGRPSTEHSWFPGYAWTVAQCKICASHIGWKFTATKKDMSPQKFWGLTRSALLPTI
T1 sequence (Q96SW2 317-425): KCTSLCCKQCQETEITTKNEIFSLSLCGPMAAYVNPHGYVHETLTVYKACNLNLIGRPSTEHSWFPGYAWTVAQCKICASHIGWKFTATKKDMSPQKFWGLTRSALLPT

Compound | Cereblon Binding (≥50% inhibition at 200 μM) [5] | IL-2 (%) (Relative to DMSO) (IL-2) | viability [9] [%] | further results
Nc1cccc2c1C(=O)N(C1CCC(=O)NC1=O)C2=O (stereo not shown) [Pomalidomide, pomalidomide] |  |  |  | IC50 [1]: 0.05 to 0.61 µM; proliferation (human T cells [2]): increase proliferation; relative viability (human T cells [2]; 72 h): no effect on viability
Nc1cccc2c1CN(C1CCC(=O)NC1=O)C2=O (stereo not shown) [Lenalidomide, lenalidomide] |  |  |  | IC50 [1]: 7 to 16 µM; levels of IL2 mRNA and protein (human T cells [3]): significantly increased; lenalidomide-induced increase in IL-2 (mouse T cells [4]): only human T cells displayed the expected lenalidomide-induced increase in IL-2
Cn1c(=O)ccn(CCCCc2ccccc2)c1=O | No |  |  | Viability (%) (Relative to DMSO) (MM1.S): 43.0%; Viability (%) (Relative to DMSO) (U266): 32.7%; Viability (%) (Relative to DMSO) (THP-1): 32.8%; Viability (%) (Relative to DMSO) (U-937): 50.5%; Viability (%) (Relative to DMSO) (K562): 17.7%; Viability (%) (Relative to DMSO) (HL-60): 39.3%; viability [6]: 94.2%
O=C1CCC(N2C(=O)c3ccccc3C2=O)C(=O)N1 (stereo not shown) [Thalidomide, thalidomide] |  |  |  | growth suppression ([1]; doses up to 200 μM): no suppressive function
Nc1cccc2c1CN(C1CCC(=O)NC1=O)C2=O (stereo not shown) [drawing 123] |  |  |  | viability [6]: 99.9%
O=C1CCC(NCCc2ccccn2)C(=O)N1 (stereo not shown) |  |  |  | inhibition at 200 µM [5]: > 50%; Viability (%) (Relative to DMSO) (MM1.S): 29.9%; Viability (%) (Relative to DMSO) (U266): 27.0%; Viability (%) (Relative to DMSO) (THP-1): 98.8%; Viability (%) (Relative to DMSO) (U-937): 58.4%; Viability (%) (Relative to DMSO) (K562): 80.0%; Viability (%) (Relative to DMSO) (HL-60): 81.8%; viability [6]: 91.1%
Cc1sc2c(c1C)C(c1ccc(Cl)cc1)=N[C@@H](CC(=O)NCCCCNC(=O)COc1cccc3c1C(=O)N(C1CCC(=O)NC1=O)C3=O)c1nnc(C)n1-2 (stereo partly shown) [dBET1] |  |  |  | surface expression of CD98 (mouse T cells [7]): reduces the percentage of cells expressing the c-Myc target CD98; viability (mouse T cells [7]): suppresses viability; BRD4 protein and c-Myc expression ([8]; human T cells, mouse T cells, MM1.S, 5TGM1): dramatically suppressed
Cc1sc2c(c1C)C(c1ccc(Cl)cc1)=N[C@@H](CC(=O)OC(C)(C)C)c1nnc(C)n1-2 [JQ1] |  |  |  | binding affinity for CRBN-TBD (human TBD wild type): does not bind; c-Myc mRNA (c-Myc mRNA): Suppression; proliferation (mouse T cells [7]): compromised; surface expression of CD98 (mouse T cells [7]): reduction; viability (mouse T cells [7]): compromised; BRD4 protein level ([8]; activated mouse T cells, not dependent on CRBN): slight reduction in protein expression
O=C1CCC(NS(=O)(=O)c2ccc([N+](=O)[O-])cc2)C(=O)N1 (stereo not shown) | Yes* | 56.3 | 93.4 | 
O=C1CC[C@@H](C(=O)Nc2ccccc2)N1 | No | 0.5 | 106 | 
O=c1ccn(CCNS(=O)(=O)Cc2ccccc2)c(=O)[nH]1 |  | 138.2 | 76.7 | inhibition at 200 µM [5]: > 50%
Nc1cccc(F)c1C(=O)NCCn1ccc(=O)[nH]c1=O | Yes* | 107.0 | 95 | 
Nc1ccccc1C(=O)NCCn1cc(F)c(=O)[nH]c1=O | Yes* | 109.0 | 89.7 | 
CNc1ccccc1C(=O)NCCNC1CC(=O)NC1=O (stereo not shown) | No |  |  | Viability (%) (Relative to DMSO) (MM1.S): 53.6%; Viability (%) (Relative to DMSO) (U266): 0.1%; Viability (%) (Relative to DMSO) (THP-1): 41.1%; Viability (%) (Relative to DMSO) (U-937): 6.3%; Viability (%) (Relative to DMSO) (K562): 21.1%; Viability (%) (Relative to DMSO) (HL-60): 12.0%; viability [6]: 92.6%
Nc1cc(Cl)ccc1C(=O)NCCN1CCC(=O)NC1=O | Yes* | 14.1 | 78.7 | 
O=C1CN(N2C(=O)c3cccc([N+](=O)[O-])c3C2=O)C(=O)N1 | No | 50.0 | 96.4 | 
COC(=O)c1ccccc1NC(=O)[C@H](CC(=O)NC1CCC(=O)NC1=O)NC(=O)OC(C)(C)C (stereo partly shown) | Yes* | 25.0 | 85.6 | 
O=c1ccn(CCCc2ccc(Cl)cc2)c(=O)[nH]1 | Yes* | 93.9 | 90.7 | 
O=c1ccn(CCNS(=O)(=O)c2ccccc2)c(=O)[nH]1 | Yes* | 90.8 | 77.8 | 
Cc1ccc(N)c(C(=O)NCCn2ccc(=O)[nH]c2=O)c1 | Yes* | 83.7 | 75.2 | 
O=c1ccn(CCCCc2ccccc2)c(=O)[nH]1 | Yes* | 101.8 | 86.4 | 
O=C1C[C@H](N2C(=O)c3ccccc3C2=O)C(=O)N1 | No | 44.4 | 85.6 | 
Cc1ccc(C(=O)NC2CCC(=O)NC2=O)o1 (stereo not shown) |  | 48.0 | 84.7 | inhibition at 200 µM [5]: > 50%
COc1ccc(C2=NNC(=O)CC2)cc1OC | No | 12.4 | 100 | 
O=C1CCC(NCc2ccc(N3CCOCC3)cc2)C(=O)N1 (stereo not shown) |  | 14.9 | 94.5 | inhibition at 200 µM [5]: > 50%
O=C1CCC(NCCNC(=O)c2ccccc2)C(=O)N1 (stereo not shown) | Yes* | 46.7 | 68.2 | 
CN(Cc1ccccc1)C1CC(=O)NC1=O (stereo not shown) | No |  |  | Viability (%) (Relative to DMSO) (MM1.S): 1.1%; Viability (%) (Relative to DMSO) (U266): 0%; Viability (%) (Relative to DMSO) (THP-1): 32.6%; Viability (%) (Relative to DMSO) (U-937): 98.5%; Viability (%) (Relative to DMSO) (K562): 116.7%; Viability (%) (Relative to DMSO) (HL-60): 10.15%; viability [6]: 96.8%
CNc1ccccc1C(=O)NCCn1cc(F)c(=O)[nH]c1=O | Yes* | 75.1 | 79.2 | 
